From ChEMBL document CHEMBL1201862, “PubChem BioAssay data set” (2004)
Activity calls are given as the source filed them.

Columns and labels:
Cytochrome P450 2C9 = Cytochrome P450 2C9 (Homo sapiens, UniProt P11712)
Cytochrome P450 2D6 = Cytochrome P450 2D6 (Homo sapiens, UniProt P10635);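 further: CYP2D6 member of a cytochrome P450 panel assay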
[1] = molecular target: T1, RNA-binding protein pos-1 (Caenorhabditis elegans, UniProt G5EF15); assay: disruptors of C. elegans POS-1 RNA interaction – biochemical, fluorescence polarization, dose response (AID 1964);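 further: purified POS-1 fused to maltose binding protein made in E. coli; potency of compounds blocking POS-1 binding to fluorescent RNA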
T1 sequence (G5EF15 whole entry): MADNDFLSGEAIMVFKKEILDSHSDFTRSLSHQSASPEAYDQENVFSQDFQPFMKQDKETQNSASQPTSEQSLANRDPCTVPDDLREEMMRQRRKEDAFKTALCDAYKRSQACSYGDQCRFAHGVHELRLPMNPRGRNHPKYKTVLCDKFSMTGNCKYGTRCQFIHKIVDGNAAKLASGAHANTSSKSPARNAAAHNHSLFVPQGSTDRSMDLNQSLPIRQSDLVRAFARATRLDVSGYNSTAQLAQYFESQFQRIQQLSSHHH

[2] = molecular target: T2, Zinc finger protein mex-5 (Caenorhabditis elegans, UniProt Q9XUB2); assay: potency of MEX-5 RNA-binding blockers – biochemical, C. elegans, fluorescence polarization, dose response (AID 1960)
T2 sequence (Q9XUB2 whole entry): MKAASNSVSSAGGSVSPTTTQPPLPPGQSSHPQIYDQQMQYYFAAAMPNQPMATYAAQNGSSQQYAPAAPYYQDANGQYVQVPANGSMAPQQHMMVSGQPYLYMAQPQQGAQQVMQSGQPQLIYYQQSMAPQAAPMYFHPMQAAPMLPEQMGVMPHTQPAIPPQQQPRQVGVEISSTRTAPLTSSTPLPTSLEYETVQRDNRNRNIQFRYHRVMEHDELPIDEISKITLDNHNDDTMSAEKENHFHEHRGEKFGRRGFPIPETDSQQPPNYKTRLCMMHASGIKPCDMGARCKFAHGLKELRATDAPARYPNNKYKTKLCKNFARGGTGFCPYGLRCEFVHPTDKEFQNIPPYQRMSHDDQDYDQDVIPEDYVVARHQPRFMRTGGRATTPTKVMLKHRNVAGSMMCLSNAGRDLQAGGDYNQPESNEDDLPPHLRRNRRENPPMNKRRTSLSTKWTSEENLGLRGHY

Keap1/Nrf2 = Keap1/Nrf2 (Homo sapiens, UniProt Q14145); assay: disruptors of Keap1 binding to Nrf2 peptide – biochemical, fluorescence polarization, cherry-picked samples, dose response (AID 588683)
[3] = molecular target: Sphingosine 1-phosphate receptor 5 (Homo sapiens, UniProt Q9H228); assay: Late stage counterscreen assay for S1P4 antagonists: Fluorescence dose response cell-based screening assay for antagonists of the Sphingosine 1-Phosphate Receptor 5 (S1P5). [Related pubchem assays (depositor defined):AID1510, AID1524, AID1692, AID1853, AID2332, AID489009, AID489017]; assay type: functional
[4] = molecular target: Sphingosine 1-phosphate receptor 3 (Homo sapiens, UniProt Q99500); assay: Late stage counterscreen assay for S1P4 antagonists: Fluorescence dose response cell-based screening assay for antagonists of the Sphingosine 1-Phosphate Receptor 3 (S1P3). [Related pubchem assays (depositor defined):AID1510, AID1524, AID1692, AID1853, AID2332, AID489009, AID489017]; assay type: functional
[5] = molecular target: Sphingosine 1-phosphate receptor 1 (Homo sapiens, UniProt P21453); assay: Late stage counterscreen assay for S1P4 antagonists: Fluorescence dose response cell-based screening assay for antagonists of the Sphingosine 1-Phosphate Receptor 1 (S1P1). [Related pubchem assays (depositor defined):AID1510, AID1524, AID1692, AID1853, AID2332, AID489009, AID489017]; assay type: functional
[6] = molecular target: Sphingosine 1-phosphate receptor 2 (Homo sapiens, UniProt O95136); assay: Late stage counterscreen assay for S1P4 antagonists: Fluorescence dose response cell-based screening assay for antagonists of the Sphingosine 1-Phosphate Receptor 2 (S1P2). [Related pubchem assays (depositor defined):AID1510, AID1524, AID1692, AID1853, AID2332, AID489009, AID489017]; assay type: functional
[7] = molecular target: Intestinal-type alkaline phosphatase (Mus musculus, UniProt P24822); assay: PubChem AID 488874; assay type: functional
[8] = molecular target: T3, Intestinal-type alkaline phosphatase (Homo sapiens, UniProt P09923); assay: inhibition of human intestinal alkaline phosphatase – biochemical, luminescent, uHTS hits, set 2, dose response (AID 488793); assay type: functional
[9] = molecular target: T3, Intestinal-type alkaline phosphatase; assay: Dose Response confirmation of uHTS hits from a small molecule inhibitors of human intestinal alkaline phosphatase via a luminescent assay. [Related pubchem assays (depositor defined):AID2544, AID2574]; assay type: functional
Nonstructural protein 1 = Nonstructural protein 1 (Influenza A virus, UniProt Q194T2); assay type: functional, Influenza A virus (A/California/07/2009(H1N1))
[10] = molecular target: T4, Alkaline phosphatase, tissue-nonspecific isozyme (Homo sapiens, UniProt P05186); assay: inhibition of tissue-nonspecific alkaline phosphatase – biochemical, dose response (AID 488882); assay type: functional
T4 sequence (P05186 whole entry): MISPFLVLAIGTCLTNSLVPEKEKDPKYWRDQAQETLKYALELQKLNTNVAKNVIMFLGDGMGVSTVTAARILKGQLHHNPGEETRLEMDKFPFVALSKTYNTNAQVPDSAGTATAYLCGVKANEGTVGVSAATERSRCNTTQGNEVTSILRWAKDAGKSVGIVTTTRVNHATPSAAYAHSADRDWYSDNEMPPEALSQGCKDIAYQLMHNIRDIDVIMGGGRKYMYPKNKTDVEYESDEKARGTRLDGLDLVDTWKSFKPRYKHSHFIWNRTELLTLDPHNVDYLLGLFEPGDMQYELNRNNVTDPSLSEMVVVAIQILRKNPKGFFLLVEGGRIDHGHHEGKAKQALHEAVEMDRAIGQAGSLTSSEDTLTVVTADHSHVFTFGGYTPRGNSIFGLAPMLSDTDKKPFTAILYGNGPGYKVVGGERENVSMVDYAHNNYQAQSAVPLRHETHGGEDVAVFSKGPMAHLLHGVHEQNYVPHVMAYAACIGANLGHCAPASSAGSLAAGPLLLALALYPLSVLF

Protein RecA = molecular target: T5, Protein RecA (Mycobacterium tuberculosis, UniProt P9WHJ3); assay: Fluorescence Cell-Free Homogeneous Dose Retest to Identify Inhibitors of RecA-Intein Splicing Activity. [Related pubchem assays (depositor defined):AID2097, AID2223, AID489010, AID492950]; assay type: functional
T5 sequence (P9WHJ3 whole entry): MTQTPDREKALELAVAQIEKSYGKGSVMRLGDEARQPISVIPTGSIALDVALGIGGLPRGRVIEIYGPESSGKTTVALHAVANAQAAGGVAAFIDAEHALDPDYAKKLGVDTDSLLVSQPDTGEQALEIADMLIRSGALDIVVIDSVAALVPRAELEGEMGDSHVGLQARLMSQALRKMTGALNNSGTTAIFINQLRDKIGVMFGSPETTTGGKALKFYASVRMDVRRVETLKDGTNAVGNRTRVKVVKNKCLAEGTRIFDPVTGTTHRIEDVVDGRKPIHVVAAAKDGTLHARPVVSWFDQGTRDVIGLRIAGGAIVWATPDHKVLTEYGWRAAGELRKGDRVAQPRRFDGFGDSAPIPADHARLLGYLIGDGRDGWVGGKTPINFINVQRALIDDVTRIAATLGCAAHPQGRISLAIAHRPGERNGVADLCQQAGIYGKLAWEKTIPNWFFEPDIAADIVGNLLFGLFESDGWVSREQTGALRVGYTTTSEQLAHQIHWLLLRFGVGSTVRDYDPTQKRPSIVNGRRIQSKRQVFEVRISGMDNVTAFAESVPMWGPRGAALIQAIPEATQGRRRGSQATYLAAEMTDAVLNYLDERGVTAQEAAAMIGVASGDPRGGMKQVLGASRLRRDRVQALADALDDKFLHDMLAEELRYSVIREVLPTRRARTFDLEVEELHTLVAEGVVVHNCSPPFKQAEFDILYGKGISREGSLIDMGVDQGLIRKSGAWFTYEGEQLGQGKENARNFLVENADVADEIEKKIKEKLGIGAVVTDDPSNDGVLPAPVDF

Protein skinhead-1 = molecular target: T6, Protein skinhead-1 (Caenorhabditis elegans, UniProt P34707); assay type: functional
T6 sequence (P34707 whole entry): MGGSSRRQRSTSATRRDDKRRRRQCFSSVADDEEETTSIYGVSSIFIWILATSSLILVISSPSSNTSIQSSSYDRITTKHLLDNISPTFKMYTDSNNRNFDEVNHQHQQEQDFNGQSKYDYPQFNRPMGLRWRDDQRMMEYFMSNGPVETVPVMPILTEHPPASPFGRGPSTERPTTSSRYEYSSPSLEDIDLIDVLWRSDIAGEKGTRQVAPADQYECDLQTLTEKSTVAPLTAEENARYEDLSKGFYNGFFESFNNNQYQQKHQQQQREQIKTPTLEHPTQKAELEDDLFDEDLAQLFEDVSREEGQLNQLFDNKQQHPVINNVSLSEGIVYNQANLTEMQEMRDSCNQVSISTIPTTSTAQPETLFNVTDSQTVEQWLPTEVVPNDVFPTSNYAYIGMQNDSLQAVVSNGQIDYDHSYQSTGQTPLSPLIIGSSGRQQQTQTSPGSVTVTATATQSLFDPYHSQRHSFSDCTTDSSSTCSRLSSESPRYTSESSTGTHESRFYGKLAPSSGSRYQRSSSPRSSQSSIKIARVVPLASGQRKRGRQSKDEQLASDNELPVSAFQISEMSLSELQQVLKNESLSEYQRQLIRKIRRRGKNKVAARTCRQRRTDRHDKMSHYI

SUMO E1/E2 = SUMO E1/E2 (Homo sapiens, UniProt P63279+Q9UBE0+Q9UBT2); assay: SAR analysis of SUMOylation using HTRF in an in-Vitro dose response assay. [Related pubchem assays (depositor defined):AID2006, AID2011, AID2018, AID2069, AID2658]; assay type: functional
[11] = molecular target: T7, Voltage-gated N-type calcium channel alpha-1B subunit/Amyloid beta A4 precursor protein-binding family A member 1 (Homo sapiens, UniProt Q00975+Q02410); assay: disruptors of Mint-PDZ/N-type channel peptide interaction – biochemical, HTRF, set 2, SAR follow-up (AID 434980); assay type: functional
[12] = molecular target: T7, Voltage-gated N-type calcium channel alpha-1B subunit/Amyloid beta A4 precursor protein-binding family A member 1; assay: disruptors of Mint-PDZ/N-type channel peptide interaction – biochemical, HTRF, SAR follow-up (AID 2489); assay type: functional
[13] = molecular target: T8, Short transient receptor potential channel 4 (Mus musculus, UniProt Q9QUQ5); assay: SAR Analysis for the identification of selective inhibits of the transient receptor potential cation channel C4 (TRPC4): Automated Electrophysiology_2. [Related pubchem assays (depositor defined):AID2256]; assay type: functional
T8 sequence (Q9QUQ5 whole entry): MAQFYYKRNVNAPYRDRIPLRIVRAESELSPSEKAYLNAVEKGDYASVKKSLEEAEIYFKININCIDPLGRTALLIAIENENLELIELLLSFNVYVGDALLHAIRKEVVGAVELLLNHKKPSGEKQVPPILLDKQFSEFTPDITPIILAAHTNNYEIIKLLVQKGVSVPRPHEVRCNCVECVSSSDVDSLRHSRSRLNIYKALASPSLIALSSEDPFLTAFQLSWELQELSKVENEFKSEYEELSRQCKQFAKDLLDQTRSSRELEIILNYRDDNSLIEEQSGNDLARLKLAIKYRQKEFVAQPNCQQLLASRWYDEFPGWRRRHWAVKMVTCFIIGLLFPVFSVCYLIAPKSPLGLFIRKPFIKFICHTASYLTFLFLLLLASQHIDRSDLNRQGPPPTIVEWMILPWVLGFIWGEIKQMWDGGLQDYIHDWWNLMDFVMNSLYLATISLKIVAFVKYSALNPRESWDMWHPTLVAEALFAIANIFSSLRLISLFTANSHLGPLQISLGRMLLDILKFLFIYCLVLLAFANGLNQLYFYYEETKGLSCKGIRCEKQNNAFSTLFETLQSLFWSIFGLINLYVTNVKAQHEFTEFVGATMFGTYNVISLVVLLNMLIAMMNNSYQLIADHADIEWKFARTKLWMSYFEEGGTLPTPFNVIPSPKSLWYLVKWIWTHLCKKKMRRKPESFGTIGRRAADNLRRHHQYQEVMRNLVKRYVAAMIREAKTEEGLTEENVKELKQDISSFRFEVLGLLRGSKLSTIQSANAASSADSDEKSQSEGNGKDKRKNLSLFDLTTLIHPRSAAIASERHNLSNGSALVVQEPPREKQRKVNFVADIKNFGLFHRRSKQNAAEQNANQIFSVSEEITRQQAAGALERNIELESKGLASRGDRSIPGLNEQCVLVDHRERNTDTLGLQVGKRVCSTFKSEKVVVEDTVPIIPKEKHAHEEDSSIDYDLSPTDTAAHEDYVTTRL

[14] = molecular target: T8, Short transient receptor potential channel 4; assay: potency of mouse TRPC4 calcium flux blockers – cell-based, HEK293 TRPC4/mu-opioid, DAMGO stimulus, Fluo-4, dose response (AID 492994); assay type: functional
[15] = restored growth of temperature-sensitive Burl-1 yeast – whole organism, S. cerevisiae, Burl-1 ts mutant, luminescence, counter-screen for SUMOylation pathway inhibitor project, dose response (AID 463199); assay type: functional

T3 sequence (P09923 whole entry): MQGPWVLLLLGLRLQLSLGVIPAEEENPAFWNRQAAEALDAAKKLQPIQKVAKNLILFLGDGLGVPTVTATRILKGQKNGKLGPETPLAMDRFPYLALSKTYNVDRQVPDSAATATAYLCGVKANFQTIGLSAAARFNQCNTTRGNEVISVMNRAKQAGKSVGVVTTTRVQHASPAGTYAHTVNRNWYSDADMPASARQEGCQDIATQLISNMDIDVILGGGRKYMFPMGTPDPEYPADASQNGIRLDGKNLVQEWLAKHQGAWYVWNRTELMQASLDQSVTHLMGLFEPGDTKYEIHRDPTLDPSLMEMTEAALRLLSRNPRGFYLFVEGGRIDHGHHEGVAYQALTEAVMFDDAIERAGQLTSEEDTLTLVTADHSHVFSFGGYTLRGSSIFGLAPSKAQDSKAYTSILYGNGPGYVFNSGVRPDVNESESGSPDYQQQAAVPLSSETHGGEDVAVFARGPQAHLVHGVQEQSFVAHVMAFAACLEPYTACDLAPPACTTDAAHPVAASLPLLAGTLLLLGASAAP
T7 sequence (Q00975 whole entry): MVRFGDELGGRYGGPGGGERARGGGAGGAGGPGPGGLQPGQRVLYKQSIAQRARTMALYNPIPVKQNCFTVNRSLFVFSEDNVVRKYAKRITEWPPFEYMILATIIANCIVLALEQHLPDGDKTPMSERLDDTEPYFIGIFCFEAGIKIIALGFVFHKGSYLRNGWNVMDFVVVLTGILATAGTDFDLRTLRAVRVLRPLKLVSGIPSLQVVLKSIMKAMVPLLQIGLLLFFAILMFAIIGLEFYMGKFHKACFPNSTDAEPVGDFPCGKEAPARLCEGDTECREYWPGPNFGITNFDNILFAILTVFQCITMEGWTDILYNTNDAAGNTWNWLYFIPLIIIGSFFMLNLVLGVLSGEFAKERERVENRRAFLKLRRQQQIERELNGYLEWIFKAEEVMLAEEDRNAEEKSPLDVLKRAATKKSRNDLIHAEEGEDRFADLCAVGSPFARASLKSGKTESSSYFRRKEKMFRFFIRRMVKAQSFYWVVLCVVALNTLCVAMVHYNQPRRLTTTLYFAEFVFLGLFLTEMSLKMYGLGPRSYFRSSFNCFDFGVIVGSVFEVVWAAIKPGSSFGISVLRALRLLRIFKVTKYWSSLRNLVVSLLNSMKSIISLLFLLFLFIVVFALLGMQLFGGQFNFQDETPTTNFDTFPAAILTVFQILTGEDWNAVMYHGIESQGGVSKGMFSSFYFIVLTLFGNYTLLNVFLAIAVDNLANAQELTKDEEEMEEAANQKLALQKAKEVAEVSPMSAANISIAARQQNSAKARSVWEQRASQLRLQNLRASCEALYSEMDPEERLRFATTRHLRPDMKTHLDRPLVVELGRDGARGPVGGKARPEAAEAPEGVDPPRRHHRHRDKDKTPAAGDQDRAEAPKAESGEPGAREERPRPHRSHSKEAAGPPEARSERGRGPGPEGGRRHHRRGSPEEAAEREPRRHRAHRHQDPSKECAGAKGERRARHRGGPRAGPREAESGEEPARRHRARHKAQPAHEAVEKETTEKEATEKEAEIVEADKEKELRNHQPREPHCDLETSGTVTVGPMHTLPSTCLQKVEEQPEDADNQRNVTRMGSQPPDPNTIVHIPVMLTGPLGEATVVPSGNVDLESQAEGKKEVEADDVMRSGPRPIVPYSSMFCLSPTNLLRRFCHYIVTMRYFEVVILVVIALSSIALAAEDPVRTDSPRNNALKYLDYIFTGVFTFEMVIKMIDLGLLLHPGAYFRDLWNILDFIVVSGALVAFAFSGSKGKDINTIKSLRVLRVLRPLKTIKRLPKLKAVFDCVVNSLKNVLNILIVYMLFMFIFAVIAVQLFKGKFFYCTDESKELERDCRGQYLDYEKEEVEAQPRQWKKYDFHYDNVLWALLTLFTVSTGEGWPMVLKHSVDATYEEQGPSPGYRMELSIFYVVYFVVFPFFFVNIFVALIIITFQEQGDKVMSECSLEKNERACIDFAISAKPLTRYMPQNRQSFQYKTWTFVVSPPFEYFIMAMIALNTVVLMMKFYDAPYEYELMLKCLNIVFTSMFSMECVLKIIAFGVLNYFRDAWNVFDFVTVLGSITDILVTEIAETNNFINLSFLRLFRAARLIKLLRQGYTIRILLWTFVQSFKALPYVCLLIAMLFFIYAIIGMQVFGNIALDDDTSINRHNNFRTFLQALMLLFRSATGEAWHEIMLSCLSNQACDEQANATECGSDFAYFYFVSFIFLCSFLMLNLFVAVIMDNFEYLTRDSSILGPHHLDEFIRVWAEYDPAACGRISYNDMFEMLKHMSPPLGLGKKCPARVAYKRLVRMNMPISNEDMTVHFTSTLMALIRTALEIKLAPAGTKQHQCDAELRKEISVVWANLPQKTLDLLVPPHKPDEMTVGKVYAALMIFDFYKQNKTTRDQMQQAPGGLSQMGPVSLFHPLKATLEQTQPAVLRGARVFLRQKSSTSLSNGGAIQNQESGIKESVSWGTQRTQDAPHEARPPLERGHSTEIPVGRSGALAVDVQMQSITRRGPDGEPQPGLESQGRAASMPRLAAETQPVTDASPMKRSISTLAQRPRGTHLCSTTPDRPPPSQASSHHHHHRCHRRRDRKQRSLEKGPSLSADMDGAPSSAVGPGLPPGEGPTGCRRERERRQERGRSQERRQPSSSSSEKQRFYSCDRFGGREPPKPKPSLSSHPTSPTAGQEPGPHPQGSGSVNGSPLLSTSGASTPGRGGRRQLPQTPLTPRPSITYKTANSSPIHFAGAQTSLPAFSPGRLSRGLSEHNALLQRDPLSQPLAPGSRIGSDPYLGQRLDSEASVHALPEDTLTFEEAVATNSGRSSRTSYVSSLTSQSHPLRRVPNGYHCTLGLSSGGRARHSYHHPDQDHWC
T7 sequence (Q02410 whole entry): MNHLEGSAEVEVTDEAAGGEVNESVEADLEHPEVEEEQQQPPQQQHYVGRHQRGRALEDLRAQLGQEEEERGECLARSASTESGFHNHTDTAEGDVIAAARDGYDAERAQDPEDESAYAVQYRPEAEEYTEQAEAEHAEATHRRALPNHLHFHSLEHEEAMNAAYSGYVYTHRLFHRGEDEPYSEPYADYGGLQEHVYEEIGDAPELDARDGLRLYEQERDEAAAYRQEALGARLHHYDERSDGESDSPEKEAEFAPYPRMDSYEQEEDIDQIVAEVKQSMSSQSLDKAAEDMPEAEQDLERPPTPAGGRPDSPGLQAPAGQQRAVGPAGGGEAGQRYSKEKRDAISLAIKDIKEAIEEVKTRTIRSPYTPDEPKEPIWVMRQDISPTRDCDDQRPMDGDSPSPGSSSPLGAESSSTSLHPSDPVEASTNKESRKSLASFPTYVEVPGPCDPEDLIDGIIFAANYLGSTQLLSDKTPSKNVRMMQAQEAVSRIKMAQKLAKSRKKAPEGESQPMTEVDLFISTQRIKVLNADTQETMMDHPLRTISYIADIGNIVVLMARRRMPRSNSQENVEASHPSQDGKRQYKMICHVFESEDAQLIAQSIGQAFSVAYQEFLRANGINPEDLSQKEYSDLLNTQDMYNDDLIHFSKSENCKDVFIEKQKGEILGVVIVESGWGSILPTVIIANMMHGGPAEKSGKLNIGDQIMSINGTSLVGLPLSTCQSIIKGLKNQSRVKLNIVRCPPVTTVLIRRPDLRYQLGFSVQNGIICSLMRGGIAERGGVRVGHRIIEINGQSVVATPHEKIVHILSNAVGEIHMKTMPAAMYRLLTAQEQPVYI
Sequence of Keap1/Nrf2 (Q16236 whole entry): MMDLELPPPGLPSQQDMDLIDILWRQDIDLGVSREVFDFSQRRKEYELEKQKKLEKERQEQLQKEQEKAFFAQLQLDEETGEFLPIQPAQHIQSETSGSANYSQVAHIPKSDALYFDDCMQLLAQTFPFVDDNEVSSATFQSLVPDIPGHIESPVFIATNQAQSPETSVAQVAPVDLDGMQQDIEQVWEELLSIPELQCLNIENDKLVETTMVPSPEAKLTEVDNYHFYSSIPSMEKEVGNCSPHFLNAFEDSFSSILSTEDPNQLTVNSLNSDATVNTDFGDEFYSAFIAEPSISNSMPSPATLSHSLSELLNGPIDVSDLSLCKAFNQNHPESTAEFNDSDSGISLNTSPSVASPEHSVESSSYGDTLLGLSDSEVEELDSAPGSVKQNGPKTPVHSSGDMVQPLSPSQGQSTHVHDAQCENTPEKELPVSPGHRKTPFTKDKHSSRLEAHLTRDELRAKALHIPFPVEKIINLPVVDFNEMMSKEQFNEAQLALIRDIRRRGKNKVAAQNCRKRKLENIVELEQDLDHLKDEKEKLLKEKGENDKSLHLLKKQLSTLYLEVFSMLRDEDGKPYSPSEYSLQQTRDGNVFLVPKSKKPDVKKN
Sequence of Keap1/Nrf2 (Q14145 whole entry): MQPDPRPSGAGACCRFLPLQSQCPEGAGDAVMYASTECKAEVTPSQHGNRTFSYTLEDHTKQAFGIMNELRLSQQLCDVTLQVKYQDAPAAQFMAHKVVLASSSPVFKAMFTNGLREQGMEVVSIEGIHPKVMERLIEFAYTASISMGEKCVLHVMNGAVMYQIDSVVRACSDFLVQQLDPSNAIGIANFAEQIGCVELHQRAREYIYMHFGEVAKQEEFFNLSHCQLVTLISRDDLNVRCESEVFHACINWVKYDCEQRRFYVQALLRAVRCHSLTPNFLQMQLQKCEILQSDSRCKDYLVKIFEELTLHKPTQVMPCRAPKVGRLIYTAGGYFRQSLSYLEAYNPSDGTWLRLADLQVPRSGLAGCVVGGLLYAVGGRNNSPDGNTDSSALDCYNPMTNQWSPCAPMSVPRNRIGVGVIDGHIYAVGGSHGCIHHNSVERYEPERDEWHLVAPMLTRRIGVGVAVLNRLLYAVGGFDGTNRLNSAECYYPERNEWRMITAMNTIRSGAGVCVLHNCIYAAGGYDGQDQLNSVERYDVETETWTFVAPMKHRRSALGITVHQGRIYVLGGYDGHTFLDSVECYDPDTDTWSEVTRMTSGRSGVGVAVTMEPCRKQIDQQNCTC

SMILES: Cc1nn(-c2ccccc2)c(Cl)c1/C=N/NC(=O)c1ccco1
- AC50 (Cytochrome P450 2C9): 22.4 µM (inconclusive)
- AC50 (Cytochrome P450 2D6): inconclusive

SMILES: Cc1cc(C)c[n+](-c2[n-]c(=O)sc2C=NN=C(S)Nc2ccccc2)c1
- EC50 [1]: 9.61 µM (active)
- EC50 [2]: 9.02 µM (inconclusive)
- AC50 (Keap1/Nrf2): 39.6 µM (active)

SMILES: Cc1cscc1-c1ccc(C(=O)Nc2c(C)cccc2C)o1
- IC50 [3]: > 25 µM (inactive)
- IC50 [4]: > 25 µM (inactive)
- IC50 [5]: > 25 µM (inactive)
- IC50 [6]: > 25 µM (inactive)

SMILES: CC1=NN(Cc2ccccc2)C(=O)/C1=C\c1ccc(N(C)C)cc1
- IC50 [7]: 35.1 µM (active)
- IC50 [8]: 39.4 µM (active)
- IC50 [9]: 16.8 µM (inactive)
- IC50 (Nonstructural protein 1): 32.3 µM (active)
- IC50 [10]: 46.7 µM (active)
- EC50 (Protein RecA): > 380 µM (inactive)
- IC50 (Protein skinhead-1): > 100 µM (inactive)

SMILES: Cc1ccc(CNC(=O)COC(=O)c2cc(-c3ccco3)nc3ccccc23)cc1
- IC50 (SUMO E1/E2): 6.5 µM (active)
- IC50 [11]: 12.1 µM (active)
- IC50 [12]: 18.1 µM (active)

SMILES: Cc1cc(N2CCCC(O)C2)nc2ccccc12 (configuration not stated)
- IC50 [13]: 9.4 µM (active)
- IC50 [14]: 7.32 µM (active)

SMILES: O=C1CC(c2cccc(Br)c2)C2=C(COC2=O)N1 (configuration not stated)
- AC50 [15]: 85 µM (active)
